Reference: patent publication US20260053812A1, “METHODS OF TREATING HYPERTENSION WITH A COMBINATION OF AN ALDOSTERONE SYNTHASE INHIBITOR AND A DIURETIC” (Mineralys Therapeutics, Inc., priority 2022, published 2026)

System: subjects with uncontrolled hypertension
Test: Seated automated office blood pressure (AOBP), randomized placebo-controlled dose-ranging study
Assay type: in vivo, human
Conditions: for Automated office DBP, mean CFB at Week 8: Part 1
Experimental: A randomized, double-blinded, placebo-controlled, dose-ranging, multicenter study was conducted to evaluate the effect of orally administered Compound A HBr on blood pressure for the treatment of hypertension in male and female subjects ≥18 years of age.
The study consists of two parts. For enrollment into Part 1 of the study, a subject's value of plasma renin activity (PRA) must be ≤1 ng/mL/h based on morning measurement. If the value of PRA >1 ng/mL/h based on morning measurement, then subjects may be eligible to enter Part 2 of the study.
For Part 1, 163 enrolled subjects ≥18 years of age were randomized into 6 equal treatment groups (1:1:1:1:1:1) to 12.5 mg BID, 25 mg BID, 12.5 mg QD, 50 mg QD, 100 mg QD, or placebo. After a review of interim clinical data, the 2 lowest dose levels (12.5 mg QD and 12.5 mg BID) were stopped for future randomization due to a lack of consistent meaningful reduction of blood pressure, but the patients randomized to that point remained in the study through completion. Thus, after the review of interim clinical data, subjects were randomized into 4 equal treatment groups (1:1:1:1) to 25 mg BID, 50 mg QD, 100 mg QD, or placebo.
For Part 2, 36 enrolled subjects ≥18 years of age were randomized (5:1) to either 100 mg QD Compound A HBr or placebo such that the Compound A HBr treatment group consisted of approximately 30 subjects and the placebo treatment group will consist of approximately 6 subjects.
Subjects orally administered the assigned study drug (Compound A HBr or placebo) according to the assigned dosing regimen for 8 weeks beginning on Study Day 1. All subjects in Part 1 (regardless of dosing group) received BID dosing to preserve the integrity of the blind; active drug is administered as the morning dose for all QD dose groups. Subjects returned to the research facility or were seen by the clinical investigator or approved home health care professional at the end of Study Weeks 1, 2, 3, 4, 5, 6, 7, and 8 (±2 days) for protocol-defined efficacy and safety assessments and procedures, assessment of adverse events (AEs), and confirmation of compliance with study drug usage. Subjects also completed a telephone visit and blood pressure (BP) check at home approximately 3 days post last dose of study drug. Subjects attended up to 14 full clinic visits, including a pre-Screening visit, a Screening/start of Placebo Run-in visit, a second visit during Placebo Run-in, a clinic visit to initiate the ABPM procedure, a Randomization visit, 8 weekly visits during double-blind treatment, and an end-of-study visit scheduled 4 weeks after the last study treatment for final efficacy and safety assessments.
An automated oscillometric sphygmomanometer device was used to measure the subjects' systolic and diastolic blood pressure in office after approximately 5 minutes of rest in the seated position.
The primary endpoint is the change in office-measured (mean of last 2 of 5 unattended measurements using an automated oscillometric sphygmomanometer device after approximately 5 minutes of rest in the seated position) systolic blood pressure (SBP) from baseline to the end of Study Week 8.
Secondary endpoints of this study were: • (a) Change in 24-hour ambulatory blood pressure monitoring (ABPM) parameters (systolic and diastolic) from baseline to the end of Study Week 7. • (b) Change in office-measured SBP from baseline to the end of Study Weeks 1, 2, 3, 4, 5, 6, and 7. • (c) Change in office-measured diastolic blood pressure (DBP) from baseline to the end of Study Weeks 1, 2, 3, 4, 5, 6, 7, and 8. • (d) Proportion of subjects who achieve office-measured BP of ≤130/80 mm Hg by the end of Study Week 8.
For AOBP measurements and any other clinical or laboratory variable for which there are replicate evaluations at the screening and baseline visits, baseline is defined as the mean of the last two non-missing values prior to first administration of the IMP for the double-blinded treatment period.

For CC(=O)N[C@H]1CC[C@H](NC(=O)CN2CCN(c3nncc(-c4ccc(C)cc4)n3)CC2)CC1 [Compound A HBr], the “Placebo-corrected mean change in AOBP systolic BP, Full-analysis set” value (100 mg, Part-1 and Part-2 (interim) combined, N=58 active) was −9.9 mmHg, the “Automated office DBP, mean CFB at Week 8” value (12.5 mg BID, BMI <25 kg/m^2) was 6.00 mmHg and the “Automated office DBP, mean CFB at Week 8” value (50 mg QD, Seated SBP Tertile Low) was −2.42 mmHg. For the same compound, the “Automated office DBP, mean CFB at Week 8” value (100 mg QD, BMI 25-30 kg/m^2) was −6.50 mmHg, the “Automated office DBP, mean CFB at Week 8” value (100 mg QD, Seated SBP Tertile Middle) was −6.17 mmHg and the “Automated office DBP, mean CFB at Week 8” value (100 mg QD, thiazide diuretic use at baseline No) was −4.00 mmHg. For the same compound, the “Blood pressure reduction in individuals receiving a thiazide diuretic as background medication” value (observed across dosing cohorts) was “particularly effective”, the “Blood pressure reduction in individuals with BMI greater than 30” value (observed across dosing cohorts) was “particularly effective” and the “Subjects with change in BPsys >−15 mmHg” value (pooled 50 mg QD, 100 mg QD, 12.5 mg BID, 25 mg BID cohorts (N=103), week 8) was 41%.
